Reference: patent publication US8895559B2, “Quinoxalines derivatives and pharmaceutical compositions and kits” (Merck Patent GmbH, priority 2010, dated 2014)

Tested on: PI3K
Assay: Cellular testing of PI3K inhibitors: P-S473-PKB Luminex assay in PC3 cells
Type: cell-based
Settings: PI3K-dependent phosphorylation of PKB at Serin 473 in PC3 cells
Description: Description of the Method for the Cellular Testing of PI3K Inhibitors
The cellular assay for determination of the P-S473-PKB level is carried out as a Luminex assay in 96-well format in PC3 cells.
PC3 cells are sown out with 20,000 cells per well in 100 μl medium (45% RPMI1460/45% Ham's F12/10% FCS) and incubated on the following day for 30 min with a serial dilution of the test substance (7 concentrations) under serum-free conditions. […] The lysates are incubated overnight at 4° C. with shaking with Luminex beads to which an anti-total PKB antibody is coupled. The detection is carried out on the following day by addition of a P-S473-PKB antibody and a species-specific PE-labelled secondary antibody. The detection of P-S473-PKB is carried out by measurement in a Luminex 100 instrument by determination of 100 events per cavity in a measurement time of 60 sec. […] The values of the preparations treated with test substance are calculated from this as percent of control, and IC50 values are determined by means of RS1.
`COc1cc(Nc2nc3ccccc3nc2NS(=O)(=O)c2cn(C)c(CN(C)C)n2)c(OCCC(C)O)c(OC)c1` (stereo not drawn) [drawing 153] showed an IC50 of 4.6 nM. In the case of `COc1cc(Nc2nc3ccccc3nc2NS(C)(=O)=O)c(OCCC(C)O)c(OC)c1` (stereo not drawn) [drawing 155], the IC50 is reported as 38 nM. `COc1cc(Nc2nc3ccccc3nc2NS(=O)(=O)C2CCS(=O)(=O)C2)c(OCCCO)c(OC)c1` (stereo not drawn) [drawing 157] showed an IC50 of 53 nM. Work on `COc1cc(Nc2nc3ccccc3nc2NS(=O)(=O)c2ccc(F)cc2)c(OCCOCCO)c(OC)c1` [drawing 159] yielded an IC50 of 1.4 nM. `COc1cc(Nc2nc3ccccc3nc2NS(=O)(=O)c2cn(C)cn2)c(OCCS(C)(=O)=O)c(OC)c1` [drawing 161] gave an IC50 of 86 nM. `COc1cc(Nc2nc3ccccc3nc2NS(=O)(=O)c2cn(C)cn2)c(OCCCO)c(OC)c1` [drawing 163] showed an IC50 of 96 nM. With `COc1ccc(CCCO)c(Nc2nc3ccccc3nc2NS(=O)(=O)c2cn(C)cn2)c1` [reference compound] the IC50 was 370 nM. Work on `COc1ccc(CCCO)c(Nc2nc3ccccc3nc2NS(=O)(=O)c2cn(C)c(CN(C)C)n2)c1` [reference compound] yielded an IC50 of 1100 nM. In the case of `COc1ccc(CCO)c(Nc2nc3ccccc3nc2NS(C)(=O)=O)c1` [reference compound], the IC50 is reported as 4900 nM. `COc1ccc(CCCO)c(Nc2nc3ccccc3nc2NS(=O)(=O)C2CCS(=O)(=O)C2)c1` (stereo not drawn) [reference compound] showed an IC50 of 970 nM. `COc1ccc(CCO)c(Nc2nc3ccccc3nc2NS(=O)(=O)c2ccc(F)cc2)c1` [reference compound] gave an IC50 of 290 nM. With `COc1ccc(CCCS(C)(=O)=O)c(Nc2nc3ccccc3nc2NS(=O)(=O)c2cn(C)cn2)c1` [reference compound] the IC50 was 2600 nM. Work on `COc1cc(Nc2nc3ccccc3nc2NS(=O)(=O)c2cn(C)cn2)cc(OC)c1` [reference compound] yielded an IC50 of 985 nM.

Same assay, conditions: PI3 kinase inhibition, cell
`COc1cc(Nc2nc3ccccc3nc2NS(=O)(=O)c2ccc(CNC(C)=O)cc2)c(OCCCO)c(OC)c1` [Compound A132, N-(4-{3-[2-(3-hydroxypropoxy)-3,5-dimethoxyphenylamino]quinoxalin-2-ylsulfamoyl}benzyl)acetamide] showed an IC50 of 1 to 100 nM.

Target: CK2 protein kinase (Homo sapiens, UniProt P68400)
Sequence (P68400 whole entry): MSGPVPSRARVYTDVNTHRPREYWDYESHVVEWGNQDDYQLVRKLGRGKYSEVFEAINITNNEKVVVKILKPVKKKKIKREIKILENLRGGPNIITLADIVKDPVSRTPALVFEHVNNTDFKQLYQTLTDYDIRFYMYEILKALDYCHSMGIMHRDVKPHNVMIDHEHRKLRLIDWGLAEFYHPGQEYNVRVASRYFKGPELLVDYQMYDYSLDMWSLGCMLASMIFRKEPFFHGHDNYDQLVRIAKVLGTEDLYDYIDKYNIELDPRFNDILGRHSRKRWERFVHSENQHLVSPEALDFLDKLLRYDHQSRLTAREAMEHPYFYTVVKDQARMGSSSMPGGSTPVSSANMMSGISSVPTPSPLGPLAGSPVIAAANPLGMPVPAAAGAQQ
Assay: not given
Settings: cited from earlier work
In the case of `O=c1cc(N2CCOCC2)oc2c(-c3ccccc3)cccc12` [LY294002], the IC50 is given as 5000 to 10000 nM.

Tested on: phospholipases
Assay: not given
Settings: cited from earlier work
For `O=c1cc(N2CCOCC2)oc2c(-c3ccccc3)cccc12` [LY294002], the “inhibitory activity on phospholipases” value is listed as “slight inhibitory activity”.

Tested on: neutrophils
Assay: not given
Settings: treatment of neutrophils; Thelen et al. 1994; cited from earlier work
For `COC[C@H]1OC(=O)c2coc3c2[C@@]1(C)C1=C(C3=O)[C@@H]2CCC(=O)[C@@]2(C)C[C@H]1OC(C)=O` [wortmannin], the “fMLP-induced respiratory burst response” value is listed as “prevents”.

Tested on: neutrophils
Assay: not given
Settings: cited from earlier work
For `O=c1cc(N2CCOCC2)oc2c(-c3ccccc3)cccc12` [LY294002], the neutrophil migration is listed as “block” and the superoxide release is listed as “block”. In the case of `COC[C@H]1OC(=O)c2coc3c2[C@@]1(C)C1=C(C3=O)[C@@H]2CCC(=O)[C@@]2(C)C[C@H]1OC(C)=O` [wortmannin], the neutrophil migration is listed as “block” and the superoxide release is listed as “block”.
